Laboratory results taken from patent US20160251403A1, “PEPTIDE COMBINATIONS AND USES THEREOF IN TREATING DUST MITE ALLERGY” (ALK-ABELLO A/S, priority 2013, published 2016).
Residue numbers refer to the chain shown, from its start. No end group written: not given here.

Tests used:
DRB1_0901 = DRB1_0901 (Homo sapiens, UniProt P01903+P01911, A100R/A103E/D57H/D86V/F55Y/F60I/F76Y/I96F/K127E/L162R/M171V/P40D/Q125H/Q99R/R33Q/R42F/S133A/S66N/T210M/V115G/W38K/Y107V/Y59G/Y89S); assay: Competitive MHC class II binding assay, DRB1_0901;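 also: displacement of a radiolabeled probe peptide from purified HLA class II protein, bound counts read after two to four days incubation, six concentrations spanning 100,000-fold, unlabeled probe as reference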
DRB1_1201 = DRB1_1201 (Homo sapiens, UniProt P01903+P01911, A100R/A169T/D57E/D86V/F55L/H45Y/K41T/L162R/M171V/P40S/Q125H/Q178H/Q39Y/Q99D/R42G/S66L/T262R/V114A/V67L/W38E/Y59H/Y61H/Y89S); assay: Competitive MHC class II binding assay, DRB1_1201
DRB1_0401 = DRB1_0401 (Homo sapiens, UniProt P01903+P01911, A100K/A169T/F76Y/I96L/K127E/L162R/M171V/N62H/P40V/Q125Y/R42H/S133A/S149N/S66Y/V115G/V209L/W38E); assay: Competitive MHC class II binding assay, DRB1_0401
DRB1_0802 = DRB1_0802 (Homo sapiens, UniProt P01903+P01911, A100R/A103L/A169T/F76Y/H45Y/I96F/K41T/L162R/M171V/P40S/Q125H/Q178H/Q39Y/Q99D/R218S/R42G/S66Y/V115G/W38E); assay: Competitive MHC class II binding assay, DRB1_0802
DRB5_0101 = DRB5_0101 (Homo sapiens, UniProt P01903+Q30154); assay: Competitive MHC class II binding assay, DRB5_0101
DRB1_0701 = DRB1_0701 (Homo sapiens, UniProt P01903+P01911, A100R/A102G/A103Q/D57E/D86V/E43K/F76Y/K127E/L162R/M171V/P40G/Q125H/Q99D/R33Q/R42Y/R54Q/S133A/S66F/T210M/V115G/Y107V/Y59L/Y89S); assay: Competitive MHC class II binding assay, DRB1_0701;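 also: displacement of a radiolabeled reference peptide from purified HLA class II protein, with complex-bound radioactivity counted after 2–4 days of incubation and six concentrations spanning a 100,000-fold range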
DRB3_0202 = DRB3_0202 (Homo sapiens, UniProt P01903+P79483, A212P/D57E/F66Y/L67A/R103Q/R218S/R40L/S89Y/T80R/V86D/Y55F/Y59H); assay: Competitive MHC class II binding assay, DRB3_0202
DRB1_0301 = DRB1_0301 (Homo sapiens, UniProt P01903+P01911, A100K/A102G/A103R/A169T/F55Y/I96L/K41T/L162R/M171V/P40S/Q125H/Q178H/Q39Y/R42S/S66N/T106N/T262R/W38E/Y61H); assay: Competitive MHC class II binding assay, DRB1_0301
DRB1_1501 = DRB1_1501 (Homo sapiens, UniProt P01903+P01911); assay: Competitive MHC class II binding assay, DRB1_1501
DPA10201-DPB11401 = assay: Competitive MHC class II binding assay, DPA10201-DPB11401; conditions: read-out: HLA-DPA10201-DPB11401; positive binding at cutoff 1000 nM
DRB4_0101 = DRB4_0101 (Homo sapiens, UniProt P01903+P13762, G164S); assay: Competitive MHC class II binding assay, DRB4_0101
DRB1_1302 = DRB1_1302 (Homo sapiens, UniProt P01903+P01911, A100E/A169T/K41T/L162R/M171V/P40S/Q125H/Q178H/Q39Y/Q99D/R42S/S66N/T262R/V115G/W38E/Y61H); assay: Competitive MHC class II binding assay, DRB1_1302;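 also: purified HLA class II protein incubated two to four days with a radiolabeled reference binder and test peptide at six concentrations over a 100,000-fold range, complex-bound radioactivity counted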
DPA10103-DPB10201 = molecular target: T1, DPA10103-DPB10201 (Homo sapiens, UniProt P04440+P20036, A65V/A84D/A85E/K98E); assay: Competitive MHC class II binding assay, DPA10103-DPB10201
T1 sequence (P20036 29-260): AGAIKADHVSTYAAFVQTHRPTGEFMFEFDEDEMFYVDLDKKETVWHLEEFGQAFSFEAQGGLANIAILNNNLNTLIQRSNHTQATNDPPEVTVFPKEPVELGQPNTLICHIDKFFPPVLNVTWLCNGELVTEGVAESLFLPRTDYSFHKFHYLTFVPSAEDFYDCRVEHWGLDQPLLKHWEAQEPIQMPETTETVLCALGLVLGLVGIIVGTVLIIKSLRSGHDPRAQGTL
T1 sequence (P04440 30-258 A65V/A84D/A85E/K98E): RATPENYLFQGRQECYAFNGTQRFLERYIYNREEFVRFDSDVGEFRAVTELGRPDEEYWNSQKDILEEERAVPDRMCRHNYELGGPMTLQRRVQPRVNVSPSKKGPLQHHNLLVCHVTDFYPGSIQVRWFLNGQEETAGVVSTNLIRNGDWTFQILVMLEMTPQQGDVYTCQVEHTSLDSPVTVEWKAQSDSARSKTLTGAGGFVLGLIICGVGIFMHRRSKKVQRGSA

DQA10101-DQB10501 = DQA10101-DQB10501 (Homo sapiens, UniProt P01909+P01920, A157S/A45G/A70V/C70R/D89V/E106S/E118A/E183D/E77G/F83G/G63E/H151Q/H199R/H252R/H253Q/I129T/I235V/I88M/INS77G/K197Q/L107V/L117V/L119Y/L178F/L71W/L74F/L85Q/L91A/L98M/M46L/N214S/P87R/Q116E/Q256R/Q57E/Q76K/R102G/R240Q/R75S/R78G/S102Y/S185I/S41F/S97I/T103A/T109R/T121G/T122I/T172A/T86R/V148I/V68A/V73E/Y34C/Y58G/Y62H); assay: Competitive MHC class II binding assay, DQA10101-DQB10501; conditions: positive binding at cutoff 1000 nM; read-out: HLA-DQA10101-DQB10501
DPA10202-DPB10501 = molecular target: T2, DPA10202-DPB10501 (Homo sapiens, UniProt P04440+P20036, A42M/A65V/A84E/F191V/F64L/G113D/G114E/K142R/L158P/M116V/M62Q/P115A/Q81R/R125K/T114A/T199I/T259P/V234M); assay: Competitive MHC class II binding assay, DPA10202-DPB10501; conditions: positive binding at cutoff 1000 nM; read-out: HLA-DPA10202-DPB10501
T2 sequence (P04440 30-258 A65V/A84E/F64L/G113D/G114E/M116V/P115A/R125K/T199I/V234M): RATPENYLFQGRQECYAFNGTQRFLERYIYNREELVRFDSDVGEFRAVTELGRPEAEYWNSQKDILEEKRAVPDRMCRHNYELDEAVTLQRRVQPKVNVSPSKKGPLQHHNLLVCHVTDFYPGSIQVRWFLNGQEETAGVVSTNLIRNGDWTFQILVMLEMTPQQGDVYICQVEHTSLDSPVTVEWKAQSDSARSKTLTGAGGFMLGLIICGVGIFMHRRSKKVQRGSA
T2 sequence (P20036 29-260 A42M/F191V/K142R/L158P/M62Q/Q81R/T114A/T259P): T1 sequence (P20036 29-260) with A14M, M34Q, Q53R, T86A, K114R, L130P, F163V, T231P

DRB1_0405 = DRB1_0405 (Homo sapiens, UniProt P01903+P01911, A100R/A169T/D86S/F76Y/I96L/K127E/L162R/M171V/N62H/P40V/Q125Y/R42H/S133A/S149N/S66Y/V115G/V209L/W38E); assay: Competitive MHC class II binding assay, DRB1_0405
DPA10103-DPB10401 = molecular target: T3, DPA10103-DPB10401 (Homo sapiens, UniProt P04440+P20036); assay: Competitive MHC class II binding assay, DPA10103-DPB10401
T3 sequence (P20036 29-260): T1 sequence (P20036 29-260)
T3 sequence (P04440 30-258): T1 sequence (P04440 30-258 A65V/A84D/A85E/K98E) with V36A, D55A, E56A, E69K

DPA10201-DPB10101 = assay: Competitive MHC class II binding assay, DPA10201-DPB10101; conditions: read-out: HLA-DPA10201-DPB10101; positive binding at cutoff 1000 nM
DRB1_0101 = DRB1_0101 (Homo sapiens, UniProt P01903+P01911, A100R/D57E/F55L/F60I/F76Y/I96L/L162R/M171V/P40L/Q125E/R42F/V115G/Y59C); assay: Competitive MHC class II binding assay, DRB1_0101;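 also: competition against a radiolabeled probe peptide (0.1–1 nM) for purified HLA class II protein over 2–4 days, bound counts read after antibody capture, six competitor levels across 100,000-fold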

Measured: IC50

QQYDIKYTWNVPKIA [pep-031]
< 1000 nM: DRB1_0901 | DRB1_1201 | DRB1_0401 | DRB1_0802 | DRB5_0101 | DRB1_0701 | DRB3_0202 | DRB1_0301 | DRB1_1501 | DPA10201-DPB11401 | DRB4_0101 | DRB1_1302 | DPA10103-DPB10201 | DQA10101-DQB10501 | DPA10202-DPB10501

ESAYLAYRNQSLDLAE [pep-009]
< 1000 nM: DRB1_0901 | DRB1_0405 | DRB1_0401 | DRB1_0802 | DPA10103-DPB10401 | DRB5_0101 | DRB1_0701 | DPA10201-DPB10101 | DRB3_0202 | DRB1_1501 | DRB4_0101 | DRB1_0101 | DRB1_1302 | DQA10101-DQB10501
